Reference: patent publication US20240041042A1, “1-(PYRIDYL)-5-AZINYLPYRAZOLE DERIVATIVES, AND THEIR USE FOR CONTROL OF UNDESIRED PLANT GROWTH” (Bayer Aktiengesellschaft, priority 2020, published 2024)
Read-outs that look alike come from different tables or passages of the source.

Key:
Format in all cases: in vivo
[1] = tested on: Digitaria sanguinalis (DIGSA); assay: Post-emergence herbicidal action against DIGSA; details: visual rating about 3 weeks after treatment
Outline: (§1)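 Rates were 320 g/ha or below, applied as aqueous WP/EC spray with 0.5% additive (600 l/ha) onto one-leaf-stage plants. About 3 weeks later in the greenhouse, damage was scored visually against untreated plants on a 0–100% scale, where 100% means plants died.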

[2] = tested on: Matricaria inodora (MATIN); assay: Post-emergence herbicidal action against MATIN
Outline: as §1

[3] = tested on: Polygonum convolvulus (POLCO); assay: Post-emergence herbicidal action against POLCO
Outline: as §1

Viola tricolor (VIOTR) = assay: Post-emergence herbicidal action against VIOTR
Outline: as §1

Oryza sativa (ORYSA) = details: crop plant compatibility
Outline: (§2)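 Greenhouse crops in sandy loam sprayed post-emergence at the one-leaf stage, 2–3 weeks after sowing, with WP or EC formulations in water plus 0.5% additive at 600 l/ha. Damage rated visually about 3 weeks later versus untreated controls (0% = like control, 100% = dead); suffixes a–c denote different doses.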

Zea mays (ZEAMX) = details: for Post-emergence action against ZEAMX in %: crop plant compatibility, 80 g/ha, effect vs untreated controls; for Post-emergence action against ZEAMX in % (crop plant compatibility): 20 g/ha, effect in comparison to untreated controls
Outline: as §2

[4] = tested on: Triticum aestivum (TRZAS); details: crop plant compatibility, 20 g/ha, effect vs untreated controls
Outline: as §2

Setaria viridis (SETVI) = assay: Post-emergence herbicidal action against SETVI
Outline: as §1

[5] = tested on: Pharbitis purpurea (PHBPU); assay: Post-emergence herbicidal action against PHBPU
Outline: as §1

[6] = tested on: Verconica persica (VERPE); assay: Post-emergence herbicidal action against VERPE
Outline: as §1

[7] = tested on: Echinochloa crus-galli (ECHCG); assay: Post-emergence herbicidal action against ECHCG
Outline: as §1

[8] = tested on: Abutilon theophrasti (ABUTH); assay: Post-emergence herbicidal action against ABUTH; details: visual rating about 3 weeks after treatment vs untreated controls (100% = plants have died, 0% = like control plants)
Outline: as §1

[9] = tested on: Alopecurus myosuroides (ALOMY); assay: Post-emergence herbicidal action against ALOMY; details: 320 g/ha, visual rating about 3 weeks after treatment vs untreated controls (100% = plants have died, 0% = like control plants)
Outline: as §1

[10] = tested on: Amaranthus retroflexus (AMARE); assay: Post-emergence herbicidal action against AMARE
Outline: as §1

Avena fatua (AVEFA) = assay: Post-emergence herbicidal action against AVEFA; details: 320 g/ha, visual rating about 3 weeks after treatment
Outline: as §1

Lolium rigidum (LOLRI) = assay: Post-emergence herbicidal action against LOLRI
Outline: as §1

[11] = 20 g/ha, effect vs untreated controls
[12] = 80 g/ha, effect in comparison to untreated controls
[13] = 80 g/ha, visual rating about 3 weeks after treatment vs untreated controls (100% = plants have died, 0% = like control plants)
[14] = 320 g/ha, visual rating about 3 weeks after treatment

SMILES	Post-emergence action against DIGSA in % ([1]; 80 g/ha) [%]	Post-emergence action against DIGSA in % ([1]; 320 g/ha) [%]	Post-emergence action against MATIN in % ([2]; dosage 320 g/ha) [%]	Post-emergence action against POLCO in % ([3]; dosage 80 g/ha) [%]	Post-emergence action against VIOTR in % (Viola tricolor (VIOTR); 80 g/ha) [%]	Post-emergence action against VIOTR in % (Viola tricolor (VIOTR); 320 g/ha) [%]	Post-emergence action against ORYSA in % (Oryza sativa (ORYSA); [11]) [%]	Post-emergence action against ORYSA in % (Oryza sativa (ORYSA); [12]) [%]	Post-emergence action against TRZAS in % [4] [%]	Post-emergence action against SETVI in % (Setaria viridis (SETVI); dosage 80 g/ha) [%]	Post-emergence action against SETVI in % (Setaria viridis (SETVI); dosage 320 g/ha) [%]	Post-emergence action against PHBPU in % ([5]; dosage 320 g/ha) [%]	Post-emergence action against VERPE in % ([6]; 320 g/ha, VERPE) [%]	Post-emergence action against VERPE in % ([6]; dosage 80 g/ha) [%]	Post-emergence action against ECHCG in % ([7]; dosage 80 g/ha) [%]	Post-emergence action against ECHCG in % ([7]; dosage 320 g/ha) [%]	Post-emergence action against ABUTH in % ([8]; 320 g/ha) [%]	Post-emergence action against ALOMY in % [9] [%]	Post-emergence action against AMARE in % [10, 14] [%]	Post-emergence action against AVEFA in % (Avena fatua (AVEFA)) [%]	other results
COC(=O)COc1nn(-c2ncccc2C)c(-c2cncc(F)c2)c1Br [Example I-179]	90	90	90	90	90	90	0	20	0	90	90	90	90	90	90	90	80	90	90	90	Post-emergence action against MATIN in % ([2]; dosage 80 g/ha): 80%; Post-emergence action against POLCO in % ([3]; dosage 320 g/ha): 90%; Post-emergence action against ZEAMX in % (Zea mays (ZEAMX)): 20%; Post-emergence action against PHBPU in % ([5]; dosage 80 g/ha): 80%; Post-emergence action against ABUTH in % ([8]; 80 g/ha): 80%; Post-emergence action against AMARE in % [10, 13]: 90%
O=C(COc1nn(-c2ncccc2F)c(-c2ccc(F)nc2)c1C1CC1)OCc1ccccc1 [Example I-287]	80	80	80	–	80	90	0	20	20	90	90	80	80	80	90	90	90	90	80	90	Post-emergence action against LOLRI in % (Lolium rigidum (LOLRI); dosage 80 g/ha): 90%; Post-emergence action against LOLRI in % (Lolium rigidum (LOLRI); dosage 320 g/ha): 90%; Post-emergence action against ZEAMX in % (crop plant compatibility) (Zea mays (ZEAMX)): 10%; Post-emergence action against ZEAMX in % (Zea mays (ZEAMX)): 20%; Post-emergence action against AMARE in % [10, 13]: 80%
N#CCOC(=O)COc1nn(-c2ncccc2F)c(-c2ccc(F)nc2)c1C1CC1 [Example I-294]	80	90	90	–	90	90	10	–	10	90	90	–	90	90	80	90	80	90	80	90	Post-emergence action against LOLRI in % (Lolium rigidum (LOLRI); dosage 320 g/ha): 90%; Post-emergence action against ZEAMX in % (crop plant compatibility) (Zea mays (ZEAMX)): 20%
CCOC(=O)COc1nn(-c2cccnc2C)c(-c2cncc(F)c2)c1Br [II-45]	–	80	90	80	90	90	0	0	0	–	90	90	90	90	–	90	80	90	80	90	Post-emergence action against POLCO in % ([3]; dosage 320 g/ha): 90%
